Data reported in ChEMBL document CHEMBL4017471, “Discovery of novel aminobenzisoxazole derivatives as orally available factor IXa inhibitors” (Bioorg Med Chem Lett, 2017).

How the values were obtained:
Coagulation factor X = Coagulation factor X (Homo sapiens, UniProt P00742)
Description: Inhibition of human coagulation factor 10a

Coagulation factor IX = Coagulation factor IX (Homo sapiens, UniProt P00740)
[1] = Unbound plasma concentration in human at 10 uM measured after 4 hrs by equilibrium dialysis method; assay type: ADME, cell-free
Plasma = test: Anticoagulant activity in human plasma assessed as concentration required to double activated partial thromboplastin time; assay type: functional
[2] = Apparent permeability of the compound at 5 uM after 5 hrs by PAMPA; assay type: physicochemical
[3] = Cmax in rat at 1 mg/kg, po administered as cassette dose; assay type: ADME, organism-based; set-up: dose 1 mg/kg, route oral; settings: in vivo

Coagulation factor IX, sequence (P00740 47-191 limits assumed): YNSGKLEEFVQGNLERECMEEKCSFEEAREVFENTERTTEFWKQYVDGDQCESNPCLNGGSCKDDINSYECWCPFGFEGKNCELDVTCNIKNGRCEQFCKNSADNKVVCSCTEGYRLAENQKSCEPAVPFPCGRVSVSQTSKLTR
Coagulation factor IX, sequence (P00740 227-461 limits assumed): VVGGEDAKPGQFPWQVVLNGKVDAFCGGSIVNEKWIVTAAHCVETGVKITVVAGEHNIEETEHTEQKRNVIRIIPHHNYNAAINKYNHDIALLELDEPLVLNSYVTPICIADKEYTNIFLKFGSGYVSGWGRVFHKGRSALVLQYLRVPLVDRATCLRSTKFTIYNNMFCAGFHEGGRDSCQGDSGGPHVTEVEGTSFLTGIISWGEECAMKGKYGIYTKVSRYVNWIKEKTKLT
Coagulation factor X, sequence (P00742 41-179 limits assumed): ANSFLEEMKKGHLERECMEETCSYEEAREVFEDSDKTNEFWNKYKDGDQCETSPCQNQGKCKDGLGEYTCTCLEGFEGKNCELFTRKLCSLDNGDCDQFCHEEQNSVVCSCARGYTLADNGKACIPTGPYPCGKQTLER
Coagulation factor X, sequence (P00742 235-488 limits assumed): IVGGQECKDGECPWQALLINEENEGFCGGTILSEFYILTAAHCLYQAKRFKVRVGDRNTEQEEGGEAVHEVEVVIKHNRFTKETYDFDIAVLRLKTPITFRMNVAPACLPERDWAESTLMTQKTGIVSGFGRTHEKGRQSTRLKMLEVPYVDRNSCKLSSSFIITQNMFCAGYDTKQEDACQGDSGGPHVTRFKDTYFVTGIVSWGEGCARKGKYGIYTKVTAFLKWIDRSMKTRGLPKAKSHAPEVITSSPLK

SMILES | IC50 (Coagulation factor X) [nM] | IC50 (Coagulation factor IX) [nM] | fraction unbound at 4 h, 10 µM [1] | Papp at 5 h, 5 µM [2] [×10⁻⁶ cm/s] | Cmax [3] [ng/mL] | 2aPTT (Plasma) [µM]
Cc1ncn(-c2ccc(C(=O)N[C@@H]3CCN(c4ncc(Cl)c5c(N)noc45)C3)c(Cl)c2)n1 | > 100000 | 33 | 0.002 | 11.6 | 330 | 113
Cc1cc2c(N)noc2c(N2CC[C@@H](NC(=O)c3ccc(-n4cnnc4)cc3Cl)C2)n1 | > 100000 | 41 |  |  |  | 
Cn1cc(-c2ccc(C(=O)N[C@@H]3CCN(c4ncc(Cl)c5c(N)noc45)C3)c(Cl)c2)cnc1=O | 26000 | 36 | 0.017 | 0.7 |  | 47
Nc1noc2c(N3CCC(NC(=O)c4ccc(-n5cnnc5)cc4Cl)C3)cc(Cl)cc12 (racemic) | > 100000 | 18 |  |  |  | 
Nc1noc2c(N3CCC(NC(=O)c4ccc(-n5cnnc5)cc4Cl)C3)cccc12 (racemic) | > 100000 | 98 |  |  |  | 
Cc1cc(N2CCC(NC(=O)c3ccc(-n4cnnc4)cc3Cl)C2)c2onc(N)c2c1 (racemic) | > 100000 | 50 |  |  |  | 
Nc1noc2c(N3CC[C@@H](NC(=O)c4ccc(-n5cnc(CCO)c5)cc4Cl)C3)ncc(Cl)c12 | > 100000 | 13 | 0.005 | 1.6 | 210 | 57

The next lines start with results.

IC50 (Coagulation factor X) [nM] | IC50 (Coagulation factor IX) [nM] | fraction unbound at 4 h, 10 µM [1] | Papp at 5 h, 5 µM [2] [×10⁻⁶ cm/s] | Cmax [3] [ng/mL] | SMILES | 2aPTT (Plasma) [µM]
> 100000 | > 3000 |  |  |  | Nc1noc2c(N3CC[C@@H](NC(=O)c4ccc(-c5ncccn5)cc4Cl)C3)ncc(Cl)c12 | 
20000 | 18 | 0.004 | 6.5 | 510 | Cn1cc(-c2ccc(C(=O)N[C@@H]3CCN(c4ncc(Cl)c5c(N)noc45)C3)c(Cl)c2)ccc1=O | 85
> 100000 | 15 | 0.016 | 10.3 | 390 | Cn1ncn(-c2ccc(C(=O)N[C@@H]3CCN(c4ncc(Cl)c5c(N)noc45)C3)c(Cl)c2)c1=O | 13
22000 | 62 |  |  |  | Cc1cc(N2CC[C@@H](NC(=O)c3ccc(-n4cnnc4)cc3Cl)C2)c2onc(N)c2c1Cl | 
> 100000 | 32 | 0.001 | 3.3 | 110 | Nc1noc2c(N3CC[C@@H](NC(=O)c4ccc(-n5cnc6ccccc65)cc4Cl)C3)ncc(Cl)c12 | 72
